# Measurements from patent publication US20230102379A1 (priority 2020, published 2023).
# “Also recorded” adds a separate entry of the source. Where two headings read alike, the source gives them in different places.
# Legend:
# Xylella fastidiosa = format: cell-based; details: for diameter of inhibition: highest dose tested (2.12 μmol)
# L. crescens [1] = format: cell-based, Liberibacter crescens
# Xf = details: cited from earlier work
# Micrococcus luteus = details: cited from earlier work
# MRSA = details: cited from earlier work
# Vibrio harveyi = details: cited from earlier work
# E. coli [2] = details: cited from earlier work
# E. coli [3] = details: agar diffusion; cited from earlier work
# Bacillus megaterium = details: agar diffusion; cited from earlier work
# [4] = system: transcriptional accessory protein; details: cited from earlier work
# L. crescens [5] = details: cited from earlier work
compound,measurement,setting,value
C/C=C/C(=O)n1nnc2ccccc21,melting point,,91 to 93 °C
"C/C=C/c1cc2c(c(=O)o1)C(=O)CC(C)O2 (racemic) [Compound 2, (E)-2-methyl-7-(prop-1-en-1-yl)-2,3-dihydropyrano[4,3-b]pyran-4,5-dione]",inhibition of Xf (in words),Xylella fastidiosa,"consistent, somewhat linear relationship between compound dose and antibacterial response; also recorded: more potent than 1; also recorded: potent inhibitor"
same,inhibition of Xf (in words),Xylella fastidiosa; listed as deoxyradicinin,low micromolar inhibitor
same,inhibition of L. crescens (in words),L. crescens [1],notable linear relationships between compound dose and antibacterial response; also recorded: most potent inhibitor of L. crescens tested; also recorded: potently inhibit; also recorded: potent inhibitor
same,inhibition of L. crescens (in words),L. crescens [1]; dose 1.06 μmol and higher,complete inhibition
same,inhibition of L. crescens (in words),L. crescens [1]; listed as deoxyradicinin,nanomolar inhibitor
same,diameter of inhibition,L. crescens [1]; lowest tested dose of 0.053 μmol,4.0 cm
"CCCc1cc2c(c(=O)o1)C(=O)CC(C)O2 (racemic) [Compound 3, 2-methyl-7-propyl-2,3-dihydropyrano[4,3-b]pyran-4,5-dione]",dose at which activity is shown,Xylella fastidiosa,greater than 0.53 μmol
same,diameter of inhibition,Xylella fastidiosa,3.4 cm
same,inhibition of L. crescens (in words),L. crescens [1],notable linear relationships between compound dose and antibacterial response
"C/C=C/c1cc2c(c(=O)o1)C(=O)C[C@H](C)O2 (single isomer, unassigned) [(−)-2, (−)-deoxyradicinin]",inhibition of L. crescens (in words),L. crescens [1],potently inhibit
"C/C=C/c1cc2c(c(=O)o1)C(=O)CC(C)O2 (single isomer, unassigned; (+)) [(+)-2, (+)-deoxyradicinin]",inhibition of L. crescens (in words),L. crescens [1],potently inhibit
"C/C=C/c1cc2c(c(=O)o1)C(=O)[C@@H](O)[C@H](C)O2 [Compound 1, radicinin]",inhibition of Xf (in words),Xylella fastidiosa,"consistent, somewhat linear relationship between compound dose and antibacterial response"
same,diameter of inhibition,Xylella fastidiosa,10 cm
same,inhibition of L. crescens (in words),L. crescens [1],notable linear relationships between compound dose and antibacterial response
same,inhibition of Xf in vitro (in words),Xf,inhibitor of Xf in vitro
"C/C=C/C(=O)c1c(O)cc(/C=C/C)oc1=O [Compound 4, 3-((E)-but-2-enoyl)-4-hydroxy-6-((E)-prop-1-en-1-yl)-2H-pyran-2-one]",inhibition of L. crescens (in words),L. crescens [1],notable linear relationships between compound dose and antibacterial response
"C/C=C/c1cc(O)cc(=O)o1 [Compound 5, (E)-4-hydroxy-6-(prop-1-en-1-yl)-2H-pyran-2-one]",inhibition of Xf (in words),Xylella fastidiosa,inactive
same,diameter of inhibition,L. crescens [1]; highest dose,2.6 cm
same,diameter of inhibition,L. crescens [1]; lower doses,0.2 cm
same,melting point,,183 to 185 °C
"O=C1CCC(c2ccc(O)c3c2C(=O)C2OC2C3O)c2cccc(O)c21 (stereo not shown) [Compound 21, cladosporol A]",antibacterial activity (in words),Micrococcus luteus,modest antibacterial activity
same,antibacterial activity (in words),MRSA,modest antibacterial activity
same,antibacterial activity (in words),Vibrio harveyi,modest antibacterial activity
same,antibacterial activity (in words),E. coli [2],modest antibacterial activity
"CC(CCCCCCCCCCCCCCO[C@@H]1O[C@H](CO)[C@@H](O)[C@H](O)[C@@H]1O)C(O)=C1C(=O)C(C)N(C)C1=O (stereo partly shown) [Compound 24, epicoccamide A]",antibacterial activity (in words),Micrococcus luteus,modest antibacterial activity
same,antibacterial activity (in words),MRSA,modest antibacterial activity
same,antibacterial activity (in words),Vibrio harveyi,modest antibacterial activity
same,antibiotic activity (in words),E. coli [3],no detectable antibiotic activity
same,antibiotic activity (in words),Bacillus megaterium,no detectable antibiotic activity
same,antibacterial activity (in words),E. coli [2],modest antibacterial activity
Cc1c(Cl)cccc1Nc1ccccc1C(=O)O [Tolfenamic acid],inhibition of transcriptional accessory protein (in words),[4],inhibits a transcriptional accessory protein
CO/N=C(\C(=O)N[C@@H]1C(=O)N2C(C(=O)O)=C(COC(C)=O)CS[C@H]12)c1csc(N)n1 [cefotaxime],concentration providing nearly complete inhibition of L. crescens,L. crescens [5],0.7 µM
CC1(C)S[C@@H]2[C@H](NC(=O)COc3ccccc3)C(=O)N2[C@H]1C(=O)O [penicillin V],concentration providing nearly complete inhibition of L. crescens,L. crescens [5],0.1 µM
